Assay results from publication PMC6105845, “Nucleotide Prodrug Containing a Nonproteinogenic Amino Acid To Improve Oral Delivery of a Hepatitis C Virus Treatment” (Antimicrobial Agents and Chemotherapy, 2018).
Converted amounts (≈) assume the structure as drawn.

What was measured:
[1] = Metabolic stability in intestinal S9 fraction, dog; assay type: in vitro ADME
Protocol: (§1) Blood plasma and S9 stability was studied as described previously ([8]). In brief, the compounds were incubated at 2 μM in hamster, rat, dog, monkey, or human plasma samples for up to 4 h at 37°C. For S9 stability, the compounds were incubated at 2 μM in hamster, rat, dog, monkey, or human intestinal and hepatic S9 fractions for up to 90 min at 37°C in the presence of NADPH and uridine 5′-diphosphoglucuronic acid trisodium salt (UDPGA) (Sigma-Adrich). The samples were analyzed by liquid chromatography coupled to triple-quadrupole mass spectrometry (LC-MS/MS).
(§2) The data (analyte-to-internal standard peak area ratio) were plotted on a semilog scale and fitted using an exponential fit. The half-life (t1/2) was determined assuming first-order kinetics.

[2] = Metabolic stability in hepatic S9 fraction, hamster; assay type: in vitro ADME; details: 2 μM
Protocol: as §1, §2

HCV GT1a replicon [3] = assay: HCV GT1a replicon, stably transfected Huh-Lunet cells; assay type: cell-based, hepatitis C virus; details: for EC50: Hepatitis C virus, 72 h, stably transfected Huh-Lunet cells, 3 days
Protocol: Primary hepatocytes from humans, hamsters, dogs, and monkeys were purchased from BioreclamationIVT in 12-well plates seeded at confluence (0.88 × 10^6 cells/well). Huh-Lunet cells were obtained from ReBlikon GmbH (Mainz, Germany) ([19]). Huh-1C was derived from a GT1a replicon clone in which HCV replication was cured. All Huh-Lunet- and Huh-1C-based replicon cell lines were cultured in Dulbecco's modified Eagles' medium (DMEM) with GlutaMAX (Invitrogen, Carlsbad, CA) supplemented with 10% fetal bovine serum (FBS; HyClone, Logan, UT) and 100 U/ml penicillin (Invitrogen). Replicon cell lines containing genotype 1a (H77) and 2a (JFH1) were created as previously reported ([20][–][22]). Caco-2 cells were maintained in DMEM with sodium pyruvate, GlutaMAX supplemented with 1% penicillin-streptomycin, 1% nonessential amino acids, and 10% FBS in an incubator set at 37°C, 90% humidity, and 5% CO2.
(§3) GT1a, GT1b, and GT2a are authentic subgenomic replicons of the indicated strain. Creation of these HCV replicons was reported previously ([7]).
(§4) The EC50s, defined as the concentration at which there was a measured 50% decrease in HCV replicon level, were determined in replicon assay as previously described ([24]). Briefly, replicon cells were seeded into 96-well plates. Compounds were serially diluted in DMSO at 200× final concentrations and then added to the assay plate. Luciferase expression was quantified after 3 days of incubation using a commercial luciferase assay (Promega, Madison, WI). Data were analyzed using GraphPad Prism 6.0 (La Jolla, CA).
(§5) X represents log of compound concentration and Y represents replicon replication as the percentage of DMSO control. EC50s were calculated as an average from at least three independent experiments.

Kinetic solubility = assay type: physicochemical; details: 37 °C, kinetic from dmso stock
Protocol: The samples were incubated at 37°C for 1 h, followed by centrifugation at 2,800 relative centrifugal force (RCF) for 30 min at room temperature. Thermodynamic solubility was determined with the crystalline-free base of GS-6620 or amorphous GS2 using the shaking flask method. The concentrations of the compounds in supernatants were determined by HPLC.

in vitro = in vitro ADME; details: 37°C, read-out: Plasma stability, half-life
Protocol: as §1, §2

HCV GT1a replicon [4] = assay: HCV GT1a replicon, transiently transfected Huh-1C cells; assay type: cell-based, hepatitis C virus; details: for EC50: Hepatitis C virus, GT1A, 72 h
Protocol: as §3
(§6) RNA was transcribed in vitro using a MEGAscript […] kit (Ambion, Austin, TX) and transfected into Huh-Lunet and −1C cells using published methods ([21], [22]).
as §4, §5

[5] = Metabolic stability in hepatic S9 fraction, monkey; assay type: in vitro ADME; details: monkey (cynomolgus); 2 μM
Protocol: as §1, §2

[6] = Metabolic stability in hepatic S9 fraction, rat; assay type: in vitro ADME; details: 2 μM
Protocol: as §1, §2

[7] = Metabolic stability in hepatic S9 fraction, dog; assay type: in vitro ADME; details: 2 μM
Protocol: as §1, §2

[8] = Metabolic stability in intestinal S9 fraction, rat; assay type: in vitro ADME
Protocol: as §1, §2

HCV GT1b replicon = assay: HCV GT1b replicon, transiently transfected Huh-1C cells; assay type: cell-based, hepatitis C virus; details: for EC50: Hepatitis C virus, GT1B, 72 h
Protocol: as §3, §6, §4, §5

CES1 = target: T1, CES1 (Homo sapiens, UniProt P23141); assay: Ester cleavage by CES1; assay type: biochemical
T1 construct: purchased R&D Systems (Minneapolis, MN)
T1 sequence (P23141 18-567): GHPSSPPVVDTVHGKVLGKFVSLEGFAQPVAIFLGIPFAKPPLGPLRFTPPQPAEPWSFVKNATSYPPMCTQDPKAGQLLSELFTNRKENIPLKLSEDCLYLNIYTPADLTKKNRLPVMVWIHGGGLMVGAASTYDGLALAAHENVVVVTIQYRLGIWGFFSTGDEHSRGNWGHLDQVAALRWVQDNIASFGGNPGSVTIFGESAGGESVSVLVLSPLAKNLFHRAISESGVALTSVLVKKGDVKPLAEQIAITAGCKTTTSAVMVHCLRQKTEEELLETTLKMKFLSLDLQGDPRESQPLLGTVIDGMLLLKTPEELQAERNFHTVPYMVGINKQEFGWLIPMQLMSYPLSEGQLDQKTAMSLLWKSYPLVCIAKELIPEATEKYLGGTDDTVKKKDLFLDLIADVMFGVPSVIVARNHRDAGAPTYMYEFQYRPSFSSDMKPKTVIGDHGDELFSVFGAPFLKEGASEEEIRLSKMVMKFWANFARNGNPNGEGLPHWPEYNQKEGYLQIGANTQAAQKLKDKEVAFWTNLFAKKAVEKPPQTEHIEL
Protocol: Biochemical assays studying prodrug cleavage have been described previously ([8]). In brief, the cleavages of GS2 by CATA, CES1, CES2, and HINT1 were assessed in vitro. The reaction substrates and products were monitored over time by high-performance liquid chromatography (HPLC).

[9] = Metabolic stability in hepatic S9 fraction, human; assay type: in vitro ADME; details: 2 μM
Protocol: as §1, §2

[10] = 0.1 N HCl, simulated gastric fluid, HCl (pH 1.0)
[11] = CES1, GS-6620-containing diastereomeric mixture was used

| Compound | half-life at 2 μM [1] [h] | Metabolic stability in hepatic S9 fraction, predicted hepatic extraction [2] [%] | EC50 (HCV GT1a replicon [3]) [nM] | solubility kinetic at 1 h (Kinetic solubility; [10]) [µM] | solubility kinetic at 1 h (Kinetic solubility; aqueous buffer, PBS (pH 7.0)) [µM] | half-life at 2 μM (in vitro; dog plasma) [h] | half-life at 2 μM (in vitro; hamster plasma) [h] | half-life at 2 μM (in vitro; human plasma) [h] | half-life at 2 μM (in vitro; monkey (cynomolgus) plasma) [h] | half-life at 2 μM (in vitro; rat plasma) [h] | EC50 (HCV GT1a replicon [4]) [nM] | Metabolic stability in hepatic S9 fraction, predicted hepatic extraction [5] [%] | Metabolic stability in hepatic S9 fraction, predicted hepatic extraction [6] [%] | Metabolic stability in hepatic S9 fraction, predicted hepatic extraction [7] [%] | half-life at 2 μM [8] [h] | EC50 (HCV GT1b replicon) [nM] | Amidate ester cleavage, specific activity (CES1; [11]) [pmol/min/µg] | Metabolic stability in hepatic S9 fraction, predicted hepatic extraction [9] [%] | other results |
| --- | --- | --- | --- | --- | --- | --- | --- | --- | --- | --- | --- | --- | --- | --- | --- | --- | --- | --- | --- |
| CC(C)OC(=O)C(C)(C)N[P@](=O)(OC[C@H]1O[C@@](C#N)(c2ccc3c(N)ncnn23)[C@](C)(O)[C@@H]1O)Oc1ccccc1 [GS2] | 9.17 | 93 | 380 ± 150 | > 100 | > 100 | > 10 | > 10 | > 10 | > 10 | 0.0833 | 140 ± 60 | 91 | 86 | 42 | 2.83 | 110 ± 20 | 91.0 | 87 | Fold (GS2/GS-6620) (HCV GT1a replicon [3]; EC50 ratio, Huh-Lunet): 3.5; Fold (GS2/GS-6620) (HCV GT1a replicon [4]; EC50 ratio, GT1a, Huh-1C): 3.5; Fold (GS2/GS-6620) (HCV GT1b replicon; EC50 ratio, GT1b, Huh-1C): 3.1; CES1 hydrolysis more efficient than GS-6620 (CES1; isopropyl ester cleavage): 48 fold |
| CC(C)OC(=O)[C@H](C)N[P@](=O)(OC[C@H]1O[C@@](C#N)(c2ccc3c(N)ncnn23)[C@](C)(O)[C@@H]1OC(=O)C(C)C)Oc1ccccc1 [GS-6620, reference compound] | 0.55 | 97 | 110 ± 50 | 87 (≈ 56.1 µg/mL) | 46 (≈ 29.7 µg/mL) | 7.17 | 2 | 6.17 | 1.33 | < 0.0333 | 41 ± 19 | 95 | 97 | 73 | 0.147 | 35 ± 15 | 1.9 | 93 | 3′-Ester cleavage, specific activity (CES1; [11]): 1.6 pmol/min/µg |
